Reference: patent publication US8846653B2, “Delta-tocotrienol treatment and prevention of pancreatic cancer” (University of South Florida, priority 2006, dated 2014)

Key:
[1] = tested on: MiaPaCa2 pancreatic cancer cells; assay: Cell death by trypan blue assay, 72 hours; type: cell-based, human; conditions: MiaPaCa2, 50 μM
Procedure: (§1) FIGS. 38A and B are graphs showing the effect of tocotrienols on pancreatic cancer survival (Trypan Blue and Cell death ELISA). […] T3=tocotrienol, T=tocopherol, vit E=vitamin E succinate, gem=gemcitabine, 5-FU=fluorouracil.
(§2) MIA PaCa2 cells (3×10^3) were plated in 96 well plates and treated the following day with different compositions of tocoperhol, tocotrienol, gemcitabine, or fluorouracil. The cells were harvested 72 hours later and tested using trypan blue assay and cell death ELISA.

[2] = tested on: BXPC3 cells; assay: Proliferation by MTT, increasing concentrations of δ-tocotrienol; type: cell-based, human; conditions: BXPC3, at 24 hours; read-out: IC50 (inhibition of proliferation, MTT)
Procedure: (§3) FIG. 24 is a graph wherein BXPC3 pancreatic cancer cells (3×10^3) were plated in 96 well plates and treated the following day with δ-tocotrienol. Proliferation was assessed by MTT at 24 hour intervals. […] HPDE 6C7 cells were also treated with increasing concentrations of δ-tocotrienol for 24 hours.
(§4) MIA PaCa2, SW1990, BXPC3, and HPDE 6C7 cells (3×10^3) were cultured as described in the Examples above, in 96-well plates and treated the following day with increasing concentrations of δ-tocotrienol.

[3] = tested on: human pancreatic ductal epithelial cells transformed with oncogenic K-ras (HPDE-K-ras); assay: Proliferation (MTT) of K-ras transformed ductal epithelial cells; type: cell-based; conditions: 72 hours
Procedure: FIGS. 36A and B are graphs showing the effect of tocotrienols on Human Pancreatic Ductal Epithelial Kras Transformed cells (MTT). (A) Tocotrienols (10-100 μM) had no effect on the proliferation of normal immortalized human pancreatic ductal epithelial cells at 72 hours. […] Points, means; bars, SE (n=3). *p<0.001 vs. vehicle. # p<0.02 vs. vehicle
The Ras effector pathways Raf-MEK-ERK and PI3 kinase-AKT are important for cell proliferation and survival, respectively. Pancreatic cancer cell lines (MIA PaCa2, SW1990, BXPC3) and HPDE 6C7 cells were treated with 8-tocotrienol (20 μM) and cell lysates were collected and prepared at progressive time intervals as described above. Proteins from lysates were run by SDS PAGE and immunoblotted with the following antibodies: Ras, p-cRaf (ser 338), p-MEK1/2, MEK1/2, pERK 44/42, ERK 44/42 (Cell Signaling) and c-Raf (BD Transduction Laboratories). […] The MIA PaCa2 and SW1990 cells were then tested for AKT inhibition. The cells were treated with δ-tocotrienol (20 μM) for 24 and 48 hours and cell lysates were run by SDS-PAGE and immunoblotted for p-AKT and AKT (Cell Signaling). […] Taken together, the inhibition of downstream effectors of oncogenic Ras signaling by δ-tocotrienol without an effect on Ras protein levels may indicate a negative regulatory role of 8-tocotrienol on the function of oncogenic Ras. The pancreatic ductal epithelial cell proliferative inhibition by δ-tocotrienol was tested to see if it occurs through blocking aberrant signal transduction cascades. Immortalized human pancreatic ductal epithelial cells (HPDE) and human pancreatic ductal epithelial cells that were transformed by stable transfection of a mutated K-ras oncogene (HPDE-K-ras) were used to test the. effect of tocotrienols on the proliferation of HPDE and HPDE-K-ras.

[4] = tested on: MiaPaCa2 pancreatic cancer cells; assay: Malignant transformation (Soft Agar) colony formation; type: cell-based, human; conditions: MiaPaCa2, 50 μM, vs vehicle
Procedure: FIG. 20 is a graph showing the effect of tocotrienols on pancreatic cancer malignant transformation (Soft Agar). […] Bars, SE (n=3). *p<0.001 vs. vehicle. **p<0.02 vs. vehicle. ***p<0.05 vs. vehicle. T=tocopherol, T3=tocotrienol.
MiaPaCa2 cells (3×10^3) were cultured as described in the Examples above, in 96-well plates and treated with 50 μM of different tocopherol or tocotrienol.

[5] = tested on: MiaPaCa2 pancreatic cancer cells; assay: Effect of tocotrienols on pancreatic cancer proliferation (MTT), 72 hours; type: cell-based, human; conditions: MiaPaCa2, 40 to 100 μM, vs vehicle
Source text: (§5) FIGS. 11A and B are graphs showing the effect of tocotrienols on pancreatic cancer proliferation (MTT). […] Points, means; bars, SE (n=3).

[6] = tested on: AsPc1 pancreatic cancer cells; assay: as above; type: cell-based, human; conditions: AsPc1, 40 to 100 μM, vs vehicle
Source text: as §5

[7] = tested on: SW1990 cells; assay: Proliferation by MTT, increasing concentrations of δ-tocotrienol; type: cell-based, human; conditions: SW1990, at 24 hours; read-out: IC50 (inhibition of proliferation, MTT)
Procedure: as §3, with “FIG. 23” for “FIG. 24”, “wherein SW1990” for “wherein BXPC3”, “of 8-tocotrienol” for “of δ-tocotrienol”
as §4

[8] = tested on: MiaPaCa2 pancreatic cancer cells; assay: Apoptosis by cell death ELISA, 72 hours; type: cell-based, human; conditions: MiaPaCa2, 50 μM
Procedure: as §1, §2

[9] = tested on: MiaPaCa-2 cells; assay: MTT assay of MiaPaCa2 cultures, single 50 μM dose; type: cell-based, human; parameters: rel amt (relative value set to the control): unit not given here; conditions: MiaPaCa2, 50 μM; for MTT assay result, av-blank: average minus blank; for MTT assay result, av: average of 7 runs
Procedure: MiaPaCa-2, BxPc-3, and HPDE6-C7 cells were cultured as described above, and treated with a single 50 μM dose of vehicle (ethanol extracted olive oil), T3 alpha (alpha tocotrienol), T3 beta (beta tocotrienol), T3 gamma (gamma tocotrienol), T3 delta (delta tocotrienol), T alpha (alpha tocopherol), T beta (beta tocopherol), TS (tocopherol succinate), GG (geranylgeraniol), SA (succinic acid). A control culture (vehicle only with no treatment) was grown alongside the treatments for comparison. Cell viability was measured using MTT assay at preselect times of 48 or 120 hours after treatment.

Molecule	cell death (Trypan Blue) [1]	proliferation (MTT) [3]	malignant transformation (Soft Agar) [4]	proliferation (MTT) [5]	proliferation (MTT) [6]	apoptosis (Cell death ELISA) [8]	rel amt (relative value set to the control) ([9]; 48 hours)	MTT assay result, av-blank ([9]; 48 hours)	MTT assay result, av ([9]; 48 hours)	MTT assay result, run 1 ([9]; 48 hours)	MTT assay result, run 2 ([9]; 48 hours)	MTT assay result, run 3 ([9]; 48 hours)	MTT assay result, run 4 ([9]; 48 hours)	MTT assay result, run 5 ([9]; 48 hours)	MTT assay result, run 6 ([9]; 48 hours)	MTT assay result, run 7 ([9]; 48 hours)	rel amt (relative value set to the control) ([9]; 120 hours (5 days))	MTT assay result, av-blank ([9]; 120 hours (5 days))	MTT assay result, av ([9]; 120 hours (5 days))	MTT assay result, run 1 ([9]; 120 hours (5 days))	further results
CC(C)=CCC/C(C)=C/CC/C(C)=C/CC[C@]1(C)CCc2cc(O)cc(C)c2O1 [T3 delta, delta tocotrienol]	significantly induced the death	significantly inhibited	significantly inhibited the malignant transformation	significantly decreased the proliferation	significantly decreased the proliferation	significantly induced	70	0.217	0.263	0.276	0.284	0.262	0.239	0.275	0.239	0.269	72	1.304	1.356	1.344	IC50 [2]: 20 to 25 µM; IC50 [7]: 20 to 25 µM; MTT assay result, run 2 ([9]; 120 hours (5 days)): 1.314; MTT assay result, run 3 ([9]; 120 hours (5 days)): 1.27; MTT assay result, run 4 ([9]; 120 hours (5 days)): 1.337; MTT assay result, run 5 ([9]; 120 hours (5 days)): 1.579; MTT assay result, run 6 ([9]; 120 hours (5 days)): 1.308; MTT assay result, run 7 ([9]; 120 hours (5 days)): 1.341
alpha tocotrienol [T3 alpha]	no effect	no effect	no effect	no effect	no effect	no effect	94	0.292	0.338	0.349	0.341	0.356	0.329	0.349	0.316	0.323	84	1.528	1.580	1.497	MTT assay result, run 2 ([9]; 120 hours (5 days)): 1.573; MTT assay result, run 3 ([9]; 120 hours (5 days)): 1.569; MTT assay result, run 4 ([9]; 120 hours (5 days)): 1.55; MTT assay result, run 5 ([9]; 120 hours (5 days)): 1.811; MTT assay result, run 6 ([9]; 120 hours (5 days)): 1.589; MTT assay result, run 7 ([9]; 120 hours (5 days)): 1.47
